Results on twelve compounds are retold here after KR20170021349A, “다양한 질병의 치료를 위한 jnk 신호 전달 경로의 세포 투과성 펩타이드 억제자의 새로운 용도” (자이겐 인플라메이션 리미티드, priority 2014, dated 2017).

No end group written: not given here.

In data set [1] the test system is TC-3 cells. The data set is described as follows: Cellular import of fluorescein-labelled TAT and TAT-IB1(s) peptides. In kind it is cell-based. The settings on record: for time to enter cells: 1 μM labelled peptide.
For data set [2], the system named is TC-3 cells. The data set is described as follows: IL-1-induced pancreatic beta-cell apoptosis. In kind it is cell-based. As to conditions: 1 μM single addition.
The test system of data set [3] is AP-1 DNA binding complex in HeLa nuclear extracts. The data set is described as follows: Gel retardation assay, AP-1 DNA binding complex after TNF-alpha. The class given is cell-based. The settings on record: added 30 min before TNF-alpha 5 ng/ml.
For the next data set, the system named is C57BL/6N mice. As to conditions: Wang et al. 2004; cited from earlier work.
The next data set relates to JNK. As to conditions: Dickens et al. 1997; cited from earlier work.
The next data set concerns Sprague-Dawley rats. The data set is described as follows: STZ diabetic nephropathy model, chronic administration. As to conditions: 25 mg/kg po daily. In kind it is in vivo, rat.
Data set [4] in a line: Phase II trial, post-surgery intraocular inflammation, vs dexamethasone eye drops. In kind it is in vivo, human.
For data set [5], the system named is primary embryonic cultures, PC12 cells, mice. As to conditions: at doses inhibiting JNK activation; cited from earlier work.
In a further data set the test system is gerbil. The settings on record: Carboni et al. 2004; cited from earlier work.
Data set [6] concerns Sprague-Dawley albino rats. As to the kind of experiment: Light-induced photoreceptor damage (AMD model), ERG and ONL thickness. In kind it is in vivo, rat. As to conditions: for a-wave recovery (% of baseline) / b-wave recovery (% of baseline): 50 mg/kg i.p. x5.

On to “NH2-RRRQRRKKRG-COOH (H-RRRQRRKKRG-OH; also: D-amino acids (positions not given here)) [D-TAT]”, for which, in the data set with TC-3 cells [1], the stability inside cells entry is on record as “극도로 안정하다” and the “time to enter cells” value was < 5 분.

Regarding “NH2-GRKKRRQRRRPPRPKRPTTLNLFPQVPRSQD-COOH (H-GRKKRRQRRRPPRPKRPTTLNLFPQVPRSQD-OH) [L-TAT-IB1(s)]”, the “time to enter cells” value with TC-3 cells [1] was < 5 분. Also, the “long-term protection against IL-1-induced cell death” value with TC-3 cells [2] (15 days IL-1) is reported as “그렇지 않았다”. Further, in data set [3], the “formation of AP-1 DNA binding complex” value is reported as “감소시켰다”.

As to `Oc1c2ccccc2c2c3c(cccc13)N=N2` [SP600125], the “level of c-Jun phosphorylation” value in the data set with C57BL/6N mice is recorded as “c-Jun 인산화의 수준을 감소”.

As to “PGTGCGDTYRPKRPTTLNLFPQVPRSQDT [IB1-long]”, the “fold more efficient than c-Jun or ATF2 in binding JNK” value in the data set with JNK is given as ~100 배.

In the case of `CCCCc1nc(Cl)c(CO)n1Cc1ccc(-c2ccccc2-c2nn[nH]n2)cc1` [로사르탄, 로사르탄 칼륨, reference compound], the “body weight vs vehicle-treated STZ rats” value with Sprague-Dawley rats was “현저하게 낮았다”.

Regarding `C[C@@H]1C[C@H]2[C@@H]3CCC4=CC(=O)C=C[C@]4(C)[C@@]3(F)[C@@H](O)C[C@]2(C)[C@@]1(O)C(=O)CO` [덱사메타손, reference compound], in data set [4] (eye drops), the “AEs leading to interruption of study treatment, events (%)” value is on record as 3 (5.5%); the “mild AEs, number of events (%)” value is on record as 42 (76.4%); the “moderate AEs, number of events (%)” value is listed as 9 (16.4%); the “patients with an AE within 24 h of administration” value is on record as 30%. In [4] (eye drops), the “patients with intraocular pressure increased” value is on record as 14% and the “severe AEs, number of events (%)” value was 4 (7.3%). Further, in data set [4] (eye drops 1 mg/ml 4x/day 21 d), the “patients with rescue medication introduced” value is listed as 4.0%. Moreover, the “SOC eye disorders, patients” value in [4] (eye drops (16 patients)) is on record as 32%. In addition, the “premature withdrawal of study eye drops, patients (%)” value in data set [4] (eye drops (N=50)) is listed as 3 (6.0%). The “patients with an adverse event” value in data set [4] (eye drops, 29/50) was found to be 58%.

As for `CCSCc1ccc2c(c1)c1c3c(c4c5cc(CSCC)ccc5n5c4c1n2[C@H]1C[C@](O)(C(=O)OC)[C@]5(C)O1)CNC3=O` [CEP-1347], the neuronal survival result in data set [5] is “신경 생존을 촉진한다”.

In the case of `N#CC(c1ccnc(NCCc2cccnc2)n1)c1nc2ccccc2s1` (stereo not shown) [AS601245], in the data set on gerbil, the “protection against delayed loss of hippocampal CA1 neurons” value is reported as “현저한 보호를 제공한다”.

Turning to `CC(C)(C)/[N+]([O-])=C/c1ccccc1` [PBN, 페닐-N-tert-부틸니트론, reference compound], the “a-wave recovery (% of baseline)” value in data set [6] (day 9) was 70.4%; in [6] (day 16), 79.6%; in data set [6] (day 23), 76.2%. The “b-wave recovery (% of baseline)” value in data set [6] (day 9) came to 100%; in data set [6] (day 16), 103.6%; in data set [6] (day 23) it was 102.4%. Further, the “ONL thickness loss (% vs non-induced control eyes)” value in data set [6] (ip 50 mg/kg) was determined as 16%. For the same compound, the ONL thickness in data set [6] (ip 50 mg/kg, day 23, p<0.05 vs vehicle) is 34.05 ± 4.00 μm.

As for IPSPSVEEPHKHRPTTLRLTTLGAQDS [IB2-long], the “fold more efficient than c-Jun or ATF2 in binding JNK” value with JNK is listed as ~100 배.

In the case of “NH2-GRKKRRQRRR-COOH (H-GRKKRRQRRR-OH) [L-TAT]”, the “time to enter cells” value in the data set on TC-3 cells [1] was < 5 분.

For the compound “TDQSRPVQPFLNLTTPRKPRYTDPPRRRQRRKKRG (also: D-amino acids (positions not given here)) [D-TAT-IB1]”, the IL-1-induced apoptosis entry in the data set with TC-3 cells [2] (2 days IL-1, similar extent as L-TAT-IB) was “감소시켰다”.
